# Assay results taken from US11464770B2, “Anticancer pharmaceutical composition” (NATIONAL CANCER CENTER, priority 2016, dated 2022).
# Like-named read-outs stand apart in the source and are kept apart here.
# Tests used:
# [1] = system: breast cancer cell lines (e.g. MDA-MB-231, SK-BR-3, MDA-MB-468, HCC1954); test: Cell based assay, cell viability (CellTiter-Glo), breast cancer cell lines
# Method in brief: (§1)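 Each commercial line was plated and allowed 24 h to settle at constant temperature. Compound exposure ran 72 h at final concentrations spanning 0 to 2 μM. Cell viability was then determined by luminescent ATP detection.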
# melanoma cell lines = test: Cell based assay, cell viability (CellTiter-Glo), melanoma cell lines; conditions: Homo sapiens; LOX-IMVI cell line
# Method in brief: as §1
# [2] = system: cervical carcinoma cell lines; test: Cell based assay, cell viability (CellTiter-Glo), cervical carcinoma cell lines; conditions: Homo sapiens; HeLa cells
# [3] = Breast cancer cell line MDA-MB-231-L/DOX, 72 hours, CellTiter-Glo, read-out: IC50, MDA-MB-231-L/DOX
# [4] = Homo sapiens, Breast cancer cell line BT-20, 72 hours, CellTiter-Glo, read-out: IC50, BT-20
# [5] = Homo sapiens, Breast cancer cell line HCC1395, 72 hours, CellTiter-Glo, read-out: IC50, HCC1395
# [6] = Homo sapiens, Breast cancer cell line HCC1954, 72 hours, CellTiter-Glo, read-out: IC50, HCC1954
# [7] = Homo sapiens, Breast cancer cell line JIMT-1, 72 hours, CellTiter-Glo, read-out: IC50, JIMT-1
# [8] = Homo sapiens, Breast cancer cell line MCF7, 72 hours, CellTiter-Glo, read-out: IC50, MCF7
# [9] = Homo sapiens, Breast cancer cell line MDA-MB-231, 72 hours, CellTiter-Glo, read-out: IC50, MDA-MB-231
# [10] = Homo sapiens, Breast cancer cell line MDA-MB-468, 72 hours, CellTiter-Glo, read-out: IC50, MDA-MB-468
# [11] = Homo sapiens, Breast cancer cell line SK-BR-3, 72 hours, CellTiter-Glo, read-out: IC50, SK-BR-3
# [12] = Homo sapiens, BT-20 cells, 72 hours treatment, CellTiter-Glo cell viability, read-out: IC50, Breast cancer cell line BT-20
# [13] = Homo sapiens, HCC1395 cells, 72 hours treatment, CellTiter-Glo cell viability, read-out: IC50, Breast cancer cell line HCC1395
# [14] = Homo sapiens, HCC1954 cells, 72 hours treatment, CellTiter-Glo cell viability, read-out: IC50, Breast cancer cell line HCC1954
# [15] = Homo sapiens, JIMT-1 cells, 72 hours treatment, CellTiter-Glo cell viability, read-out: IC50, Breast cancer cell line JIMT-1
# [16] = Homo sapiens, MCF7 cells, 72 hours treatment, CellTiter-Glo cell viability, read-out: IC50, Breast cancer cell line MCF7
# [17] = Homo sapiens, MDA-MB-231 cells, 72 hours treatment, CellTiter-Glo cell viability, read-out: IC50, Breast cancer cell line MDA-MB-231
# [18] = Homo sapiens, MDA-MB-468 cells, 72 hours treatment, CellTiter-Glo cell viability, read-out: IC50, Breast cancer cell line MDA-MB-468
# [19] = Homo sapiens, SK-BR-3 cells, 72 hours treatment, CellTiter-Glo cell viability, read-out: IC50, Breast cancer cell line SK-BR-3
# [20] = MDA-MB-231-L/DOX cells, 72 hours treatment, CellTiter-Glo cell viability, read-out: IC50, Breast cancer cell line MDA-MB-231-L/DOX
Compound,"IC50 [1, 3] [nM]","IC50 [1, 4] [nM]","IC50 [1, 5] [nM]","IC50 [1, 6] [nM]","IC50 [1, 7] [nM]","IC50 [1, 8] [nM]","IC50 [1, 9] [nM]","IC50 [1, 10] [nM]","IC50 [1, 11] [nM]",IC50 (melanoma cell lines) [nM],IC50 [2] [nM],"IC50 [1, 12] [nM]","IC50 [1, 13] [nM]","IC50 [1, 14] [nM]","IC50 [1, 15] [nM]","IC50 [1, 16] [nM]","IC50 [1, 17] [nM]","IC50 [1, 18] [nM]","IC50 [1, 19] [nM]","IC50 [1, 20] [nM]"
"CC(=O)c1c([S+]([O-])Cc2cc(F)cc(F)c2)[nH]c2c(Br)ccc(Cl)c2c1=O (stereo not shown) [Compound 46, 3-acetyl-8-bromo-5-chloro-2-((3,5-difluorobenzyl)sulfinyl)quinolin-4(1H)-one]",> 2000,> 2000,> 10000,> 2000,> 10000,> 2000,> 2000,> 2000,1160,1570,> 10000,,,,,,,,,
"Cc1cc(C[S+]([O-])c2[nH]c3c(Cl)ccc(Cl)c3c(=O)c2C(=O)C(C)C)no1 (stereo not shown) [Compound 86, 5,8-dichloro-3-isobutyryl-2-(((5-methylisoxazol-3-yl)methyl)sulfinyl)quinolin-4(1H)-one]",,,,,,,,,,710,> 2000,> 2000,> 10000,500,> 10000,1470,1580,580,580,1110
"CC(=O)c1c([S+]([O-])Cc2cc(C)on2)[nH]c2c(Br)ccc(Cl)c2c1=O (stereo not shown) [Compound 51, 3-acetyl-8-bromo-5-chloro-2-(((5-methylisoxazol-3-yl)methyl)sulfinyl)quinolin-4(1H)-one]",> 2000,> 2000,> 10000,> 2000,> 10000,> 2000,1550,> 2000,540,1460,> 10000,,,,,,,,,
"CC(=O)c1c(S(=O)(=O)Cc2ccccc2)[nH]c2c(Br)ccc(Cl)c2c1=O [Compound 34, 3-acetyl-2-(benzylsulfonyl)-8-bromo-5-chloroquinolin-4(1H)-one]",> 2000,> 2000,> 10000,> 2000,> 10000,> 2000,> 2000,> 2000,1270,1630,> 10000,,,,,,,,,
"Cc1cc(C[S+]([O-])c2[nH]c3c(Br)ccc(Cl)c3c(=O)c2C(=O)C(C)C)no1 (stereo not shown) [Compound 95, 8-bromo-5-chloro-3-isobutyryl-2-(((5-methylisoxazol-3-yl)methyl)sulfinyl)quinolin-4(1H)-one]",,,,,,,,,,540,> 2000,1870,> 10000,480,> 2000,1290,1410,470,470,1030
"CC(=O)c1c([S+]([O-])Cc2ccc(C(F)(F)F)o2)[nH]c2c(Br)ccc(Cl)c2c1=O (stereo not shown) [Compound 72, 3-acetyl-8-bromo-5-chloro-2-(((5-(trifluoromethyl)furan-2-yl)methyl)sulfinyl)quinolin-4(1H)-one]",> 2000,> 2000,> 2000,> 2000,> 2000,> 2000,1380,> 2000,850,920,> 2000,,,,,,,,,
"COc1cccc(C[S+]([O-])c2[nH]c3c(Br)ccc(Cl)c3c(=O)c2C(C)=O)c1 (stereo not shown) [Compound 55, 3-acetyl-8-bromo-5-chloro-2-((3-methoxybenzyl)sulfinyl)quinolin-4(1H)-one]",> 2000,> 2000,> 10000,> 2000,> 10000,> 2000,> 2000,> 2000,1100,1620,> 10000,,,,,,,,,
"CC(=O)c1c([S+]([O-])Cc2ccc(SC(F)(F)F)cc2)[nH]c2c(Br)ccc(Cl)c2c1=O (stereo not shown) [Compound 56, 3-acetyl-8-bromo-5-chloro-2-((4-((trifluoromethyl)thio)benzyl)sulfinyl)quinolin-4(1H)-one]",> 2000,> 2000,> 10000,1470,> 10000,> 2000,1450,1640,1380,1090,> 2000,,,,,,,,,
